Values of other authors in patent publication US20170273925A1 (Cumberland Pharmaceuticals Inc., priority 2014, published 2017).

CC(C)Cc1ccc(C(C)C(=O)O)cc1 (stereo not shown) [ibuprofen, 2-(4-isobutylphenyl) propionic acid]
Solubility in water: very poorly soluble in water
